For orientation: EC50 means the concentration that produces a half-maximal response. The Ki is a dissociation constant, usually derived from enzyme kinetics or from competition with a known ligand.

Consider 14 compounds from US6127382A, “Amines substituted with a tetrahydroquinolinyl group an aryl or heteroaryl group and an alkyl group, having retinoid-like biological activity” (Allergan Sales, Inc., priority 1999, dated 2000).

In one assay the target is T1, RXRα (Homo sapiens, UniProt P19793).
T1 construct: expressed in transfected cells
T1 sequence (P19793 1-462): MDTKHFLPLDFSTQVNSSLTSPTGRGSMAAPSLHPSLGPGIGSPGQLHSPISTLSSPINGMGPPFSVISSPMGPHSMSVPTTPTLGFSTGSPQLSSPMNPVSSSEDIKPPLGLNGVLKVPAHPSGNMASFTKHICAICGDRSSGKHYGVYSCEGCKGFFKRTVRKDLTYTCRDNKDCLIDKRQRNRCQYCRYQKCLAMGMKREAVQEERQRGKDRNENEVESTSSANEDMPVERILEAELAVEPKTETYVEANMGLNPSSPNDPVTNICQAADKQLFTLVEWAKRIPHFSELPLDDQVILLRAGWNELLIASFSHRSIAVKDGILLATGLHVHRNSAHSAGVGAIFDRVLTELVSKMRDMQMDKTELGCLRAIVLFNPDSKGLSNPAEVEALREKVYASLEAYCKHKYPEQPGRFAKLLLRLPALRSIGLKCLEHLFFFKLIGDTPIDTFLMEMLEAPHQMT
Put plainly: holoreceptor transactivation assay, RXRα. The class given is cell-based. As to conditions: for EC50: holoreceptor assay, read-out: RXR Trans EC50 α; for Emax: relative to 10^-6 M cyclopropyl penta-2,4-dienoic acid reference, read-out: % efficacy, RXRα transactivation. An excerpt: (§1) Other assays described below, measure the ability of the compounds of the present invention to bind to, and/or activate various retinoid receptor subtypes. When in these assays a compound binds to a given receptor subtype and activates the transcription of a reporter gene through that subtype, then the compound is considered an agonist of that receptor subtype. […] In the below described assays the ability of the compounds to bind to RARα, RARβ, RARγ, RXRα, RXRβ and RXRγ receptors, and the ability or inability of the compounds to activate transcription of a reporter gene through these receptor subtypes can be tested. […] However, some of the compounds of the invention may behave as retinoid antagonists or partial antagonists and/or as inverse agonists. Because of the complex distribution of the different retinoid receptors in various organs of the mammalian body partial agonists and partial antagonists and compounds which have the characteristics of both may lend themselves to particularly useful therapeutic applications and may avoid serious side effects of conventional retinoid drugs.
(§2) A holoreceptor transactivation assay and a ligand binding assay which measure the antagonist/agonist like activity of the compounds of the invention, or their ability to bind to the several retinoid receptor subtypes, respectively, are described in published PCT Application No. WO WO93/11755 (particularly on pages 30-33 and 37-41) published on Jun. 24, 1993, the specification of which is also incorporated herein by reference. A detailed experimental procedure for holoreceptor transactivations has been described by Heyman et al. Cell 68, 397-406, (1992); Allegretto et al. J. Biol. Chem. 268, 26625-26633, and Mangelsdorf et al. The Retinoids: Biology, Chemistry and Medicine, pp 319-349, Raven Press Ltd., New York, which are expressly incorporated herein by reference. The results obtained in this assay are expressed in EC50 numbers, as they are also in the chimeric receptor transactivation assay. The results of ligand binding assay are expressed in Kd numbers. (See Cheng et al. Biochemical Pharmacology Vol. 22 pp 3099-3108, expressly incorporated herein by reference.)
(§3) Table 1 discloses the activity of certain exemplary compounds of the invention in the above-described chimeric receptor transactivation assay, holoreceptor transactivation assay and a ligand binding assays. Particularly, the transactivation data pertaining to RAR receptors were obtained in the chimeric assay, and the data pertaining to transactivation of RXR receptors were obtained in the holoreceptor transactivation assay.

A further assay concerns the target T2, RARα (Homo sapiens, UniProt P10276).
T2 sequence (P10276 1-462): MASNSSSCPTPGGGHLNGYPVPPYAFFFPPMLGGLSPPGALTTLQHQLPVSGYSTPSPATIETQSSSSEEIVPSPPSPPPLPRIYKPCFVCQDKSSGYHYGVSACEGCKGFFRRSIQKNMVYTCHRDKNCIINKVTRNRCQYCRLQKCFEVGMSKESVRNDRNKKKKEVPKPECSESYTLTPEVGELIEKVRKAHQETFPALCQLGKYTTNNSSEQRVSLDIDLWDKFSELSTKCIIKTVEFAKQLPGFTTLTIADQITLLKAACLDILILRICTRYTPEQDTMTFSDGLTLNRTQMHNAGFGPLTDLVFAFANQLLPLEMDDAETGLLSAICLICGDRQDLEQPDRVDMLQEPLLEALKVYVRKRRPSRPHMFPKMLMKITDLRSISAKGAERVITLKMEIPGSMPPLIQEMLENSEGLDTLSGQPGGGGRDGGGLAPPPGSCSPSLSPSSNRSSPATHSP
Put plainly: ligand binding assay, RARα. The following applies: read-out: RAR Bind Ki α.
From the text: as §1, §2, §3

The target of a further assay is T3, RXRβ (Homo sapiens, UniProt P28702).
T3 sequence (P28702 1-533): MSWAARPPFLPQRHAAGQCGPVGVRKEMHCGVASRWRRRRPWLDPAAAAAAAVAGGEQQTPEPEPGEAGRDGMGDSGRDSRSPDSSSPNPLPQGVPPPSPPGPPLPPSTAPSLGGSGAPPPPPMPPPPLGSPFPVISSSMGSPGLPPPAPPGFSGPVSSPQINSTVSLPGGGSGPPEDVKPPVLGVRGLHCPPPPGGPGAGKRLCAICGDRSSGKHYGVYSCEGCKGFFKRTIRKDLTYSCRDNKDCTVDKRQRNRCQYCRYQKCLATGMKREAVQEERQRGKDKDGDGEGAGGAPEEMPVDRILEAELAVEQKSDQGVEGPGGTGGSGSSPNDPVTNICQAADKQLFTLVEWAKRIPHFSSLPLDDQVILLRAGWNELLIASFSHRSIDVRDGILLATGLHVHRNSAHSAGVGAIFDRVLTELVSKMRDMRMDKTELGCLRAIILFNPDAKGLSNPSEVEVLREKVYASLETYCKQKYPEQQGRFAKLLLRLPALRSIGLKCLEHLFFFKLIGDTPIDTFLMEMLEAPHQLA
Put plainly: ligand binding assay, RXRβ. The following applies: read-out: RXR Bind Ki β.
From the text: as §1, §2, §3

Turning to `Cc1cc2c(cc1Nc1ccc(C(=O)O)cc1)N(C(C)C)CCC2(C)C` [Compound 50, 4-(1-Isopropyl-4,4,6-trimethyl-1,2,3,4-tetrahydro-quinolin-7-ylamino)-benzoic acid], the EC50 at RXRα was 0.004 µM. On RXRα, the Emax turned out to be 103%. Further, the figures for the Ki at RARα and on RXRβ were greater than 10 µM and 0.262 µM, respectively.

As for `CC(C)CN(c1ccc(C(=O)O)cc1)c1ccc2c(c1)N(C(C)C)CCC2(C)C` [Compound 39, 4-[(1-Isopropyl-4,4-dimethyl-1 2,3,4-tetrahydroquinolin-7-yl)isobutylamino]benzoic acid], on RXRα, the concentration giving a half-maximal response (EC50) worked out at 0.001 µM and the Emax was determined as 121%. The Ki on RARα worked out at 6.7 µM. Further, the Ki at RXRβ was determined as 0.133 µM.

Turning to `CC(C)N1CCC(C)(C)c2ccc(N(CC3CC3)c3ccc(C(=O)O)cc3)cc21` [Compound 40, 4-[(1-Isolpropyl-4,4-dimethyl-1,2,3,4-tetrahydroquinolin-7-yl)(cylopropylmethyl)amino]benzoic acid], on RXRα, the EC50 was determined as 0.0001 µM and the Emax is 110%. The inhibition constant Ki on RARα came out at 5.1 µM. In addition, the Ki at RXRβ was 0.042 µM.

As for `CCN(c1ccc(C(=O)O)cc1)c1cc2c(cc1C)C(C)(C)CCN2C(C)C` [Compound 52, 4-[-(1-Isopropyl-4,4,6-trimethyl-1,2,3,4-tetrahydro-quinolin-7-yl)ethylamino]-benzoic acid], on RXRα, the concentration giving a half-maximal response (EC50) is 0.0002 µM and the Emax was found to be 94%. Moreover, at RARα, the Ki was 9.6 µM. For the same compound, the Ki at RXRβ was found to be 0.099 µM.

On to `CC(C)CCN(c1ccc(C(=O)O)cc1)c1ccc2c(c1)C(C)(C)CCN2C(C)C` [Compound 14, 4-[(1-Isopropyl-4,4-dimethyl-1,2,3,4-tetrahydroquinolin-6-yl)(3-methylbutyl)amino]-benzoic Acid], for which the figures for the Ki at RARα and at RXRβ were 0.34 µM and 0.778 µM, respectively.

`CCN(c1ccc(C(=O)O)cc1)c1cc2c(cc1C)N(C(C)C)CCC2(C)C` [Compound 24, 4-[(1-Isopropyl-4,4,7-trimethyl-1,2,3,4-tetrahydroquinolin-6-yl)ethylamino]benzoic acid]: on RXRα, the concentration giving a half-maximal response (EC50) is 0.036 µM. The Emax at RXRα is 90%. In addition, the Ki was greater than 10 µM on RARα and 1.1 µM at RXRβ.

As to `Cc1cc2c(cc1N(C)c1ccc(C(=O)O)cc1)C(C)(C)CCN2C(C)C` [Compound 22, 4-[(1-Isopropyl-4,4,7-trimethyl-1,2,3,4-tetrahydroquinolin-6-yl)methylamino]benzoic acid], on RXRα, the half-maximal effective concentration (EC50) amounted to 1 µM and the Emax was 80%. For the same compound, at RARα, the Ki is greater than 10 µM. Also, the Ki on RXRβ turned out to be 1.1 µM.

Regarding `CCN(c1ccc(C(=O)O)cc1)c1ccc2c(c1)C(C)(C)CCN2C(C)C` [Compound 12, 4-[(1-Isopropyl-4,4-dimethyl-1,2,3,4-tetrahydroquinolin-6-yl)ethylamino]benzoic acid], on RXRα, the 50% effective concentration (EC50) turned out to be 0.078 µM and the Emax was determined as 134%. The inhibition constant Ki at RARα is 0.467 µM. Moreover, on RXRβ, the Ki is 0.273 µM.

On to `CCN(c1ccc(C(=O)O)cc1)c1ccc2c(c1)C(C)(C)CC(=O)N2C(C)C` [Compound 6, 4-[(1-Isopropyl-4,4-dimethyl-2-oxo-1,2,3,4-tetrahydroquinolin-6-yl)ethylamino]benzoic Acid], for which, at RXRα, the concentration giving a half-maximal response (EC50) stood at 1 µM and the Emax was determined as 50%. In addition, on RARα, the Ki was found to be 10 µM.

For the compound `Cc1cc2c(cc1N(CC1CC1)c1ccc(C(=O)O)cc1)C(C)(C)CCN2C(C)C` [Compound 26, 4-[(1-Isopropyl-4,4,7-trimethyl-1,2,3,4-tetrahydro-quinolin-6-yl)(cyclopropylmethyl)amino]benzoic acid], on RXRα, the EC50 was greater than 1 µM and the Emax was determined as 25%. For the same compound, at RARα, the Ki is 15 µM. Further, the Ki at RXRβ was determined as 0.386 µM.

As for `CCN(c1ccc(C(=O)O)cc1)c1ccc2c(c1)N(C(C)C)CCC2(C)C` [Compound 38, 4-[(1-Isopropyl-4,4-dimethyl-1,2,3,4-tetrahydroquinolin-7-yl)ethylamino]benzoic acid], on RXRα, the EC50 is 0.0006 µM and the Emax amounted to 114%. For the same compound, the Ki at RARα is greater than 10 µM. Moreover, the Ki at RXRβ worked out at 0.057 µM.

As to `Cc1cc2c(cc1N(C)c1ccc(C(=O)O)cc1)N(C(C)C)CCC2(C)C` [Compound 51, 4-[(1-Isopropyl-4,4,6-trimethyl-1,2,3,4-tetrahydro-quinolin-7-yl)-methyl-amino]-benzoic acid], on RXRα, the half-maximal effective concentration (EC50) was 0.032 µM and the Emax is 92%. For the same compound, the inhibition constant (Ki) on RARα is greater than 10 µM. Moreover, the Ki on RXRβ was 0.142 µM.

In the case of `CC(C)N1CCC(C)(C)c2cc(N(C)c3ccc(C(=O)O)cc3)ccc21` [Compound 10, 4-[(1-Isopropyl-4,4-dimethyl-1,2,3,4-tetrahydroquinolin-6-yl)methylamino]benzoic Acid], on RXRα, the EC50 was 1 µM. Besides, at RXRα, the Emax turned out to be 70%. For the same compound, the Ki on RARα was greater than 10 µM; at RXRβ, greater than 1 µM.

As to `CCCN(c1ccc(C(=O)O)cc1)c1cc2c(cc1C)C(C)(C)CCN2C(C)C` [Compound 53, 4-[(1-Isopropyl-4,4,6-trimethyl-1,2,3,4-tetrahydro-quinolin-7-yl)-propyl-amino]-benzoic acid], at RXRα, the 50% effective concentration (EC50) is 0.0002 µM and the Emax was 92%. The Ki on RARα worked out at 3.01 µM. Further, the Ki at RXRβ is 0.043 µM.
